Measurements as given in PubChem BioAssay (NCI).
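GI50 = concentration required for 50% inhibition of growth. TGI: total growth inhibition.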

Key:
Assay in all cases: inhibition of tumour cell growth, NCI panel, 384-well format
[1] = system: 786-0 renal
[2] = system: A498 renal
[3] = system: A549 NSCLC
[4] = system: ACHN renal
[5] = system: BT-549 breast
[6] = system: CAKI-1 renal
[7] = system: CCRF-CEM leukemia
[8] = system: COLO 205 colon
[9] = system: DU-145 prostate
[10] = system: EKVX NSCLC
[11] = system: HCC-2998 colon
[12] = system: HCT-116 colon
[13] = system: HCT-15 colon
[14] = system: HL-60(TB) leukemia
[15] = system: HOP-62 NSCLC
[16] = system: HOP-92 NSCLC
[17] = system: HS 578T breast
[18] = system: HT29 colon
[19] = system: IGROV1 ovarian
[20] = system: K-562 leukemia
[21] = system: KM12 colon
[22] = system: LOX IMVI melanoma
[23] = system: M14 melanoma
[24] = system: MALME-3M melanoma
[25] = system: MCF7 breast
[26] = system: MDA-MB-231 breast
[27] = system: MDA-MB-435 melanoma
[28] = system: MDA-MB-468 breast
[29] = system: MOLT-4 leukemia
[30] = system: NCI-H226 lung
[31] = system: NCI-H23 lung
[32] = system: NCI-H322M lung
[33] = system: NCI-H460 NSCLC
[34] = system: NCI-H522 lung
[35] = system: NCI/ADR-RES ovarian
[36] = system: OVCAR-3 ovarian
[37] = system: OVCAR-4 ovarian
[38] = system: OVCAR-8 ovarian
[39] = system: PC-3 prostate
[40] = system: RPMI-8226 leukemia
[41] = system: RXF 393 renal
[42] = system: SF-268 CNS
[43] = system: SF-295 CNS
[44] = system: SF-539 CNS
[45] = system: SK-MEL-28 melanoma
[46] = system: SK-MEL-5 melanoma
[47] = system: SK-OV-3 ovarian
[48] = system: SN12C renal
[49] = system: SNB-19 CNS
[50] = system: SNB-75 CNS
[51] = system: SR leukemia
[52] = system: SW-620 colon
[53] = system: T-47D breast
[54] = system: TK-10 renal
[55] = system: U251 glioblastoma
[56] = system: UACC-257 melanoma
[57] = system: UACC-62 melanoma
[58] = system: UO-31 renal

Question: How did the GI50 [1] turn out when `NC1CCC(N[C@@H]2C[C@H]2c2ccccc2)CC1` (stereo partly specified) was run?
Answer: 33.4 µM

Question: What about the TGI [1] of the same compound?
Answer: > 100 µM

Question: And the GI50 [2]?
Answer: 28.3 µM

Question: What about the TGI [2] of the same compound?
Answer: > 100 µM

Question: And the GI50 [3]?
Answer: > 100 µM

Question: What about the TGI [3] of the same compound?
Answer: > 100 µM

Question: What about the GI50 [4] of the same compound?
Answer: > 100 µM

Question: And the TGI [4]?
Answer: > 100 µM

Question: What about the GI50 [5] of the same compound?
Answer: 46.2 µM

Question: And the TGI [5]?
Answer: > 100 µM

Question: What about the GI50 [6] of the same compound?
Answer: 35.2 µM

Question: What about the TGI [6] of the same compound?
Answer: > 100 µM

Question: What about the GI50 [7] of the same compound?
Answer: 31.5 µM

Question: What about the TGI [7] of the same compound?
Answer: > 100 µM

Question: What about the GI50 [8] of the same compound?
Answer: 66.7 µM

Question: What about the TGI [8] of the same compound?
Answer: > 100 µM

Question: What about the GI50 [9] of the same compound?
Answer: 87.1 µM

Question: What about the TGI [9] of the same compound?
Answer: > 100 µM

Question: What about the GI50 [10] of the same compound?
Answer: 40.2 µM

Question: What about the TGI [10] of the same compound?
Answer: > 100 µM

Question: What about the GI50 [11] of the same compound?
Answer: 40.1 µM

Question: What about the TGI [11] of the same compound?
Answer: > 100 µM

Question: And the GI50 [12]?
Answer: 41.6 µM

Question: What about the TGI [12] of the same compound?
Answer: > 100 µM

Question: What about the GI50 [13] of the same compound?
Answer: 34.1 µM

Question: What about the TGI [13] of the same compound?
Answer: > 100 µM

Question: What about the GI50 [14] of the same compound?
Answer: 10.2 µM

Question: What about the TGI [14] of the same compound?
Answer: 28.9 µM

Question: What about the GI50 [15] of the same compound?
Answer: 66.9 µM

Question: What about the TGI [15] of the same compound?
Answer: > 100 µM

Question: What about the GI50 [16] of the same compound?
Answer: 35.9 µM

Question: What about the TGI [16] of the same compound?
Answer: > 100 µM

Question: And the GI50 [17]?
Answer: 37.5 µM

Question: What about the TGI [17] of the same compound?
Answer: > 100 µM

Question: What about the GI50 [18] of the same compound?
Answer: 20 µM

Question: And the TGI [18]?
Answer: 43.7 µM

Question: And the GI50 [19]?
Answer: 48.8 µM

Question: And the TGI [19]?
Answer: > 100 µM

Question: And the GI50 [20]?
Answer: 31.4 µM

Question: And the TGI [20]?
Answer: > 100 µM

Question: And the GI50 [21]?
Answer: 61.9 µM

Question: What about the TGI [21] of the same compound?
Answer: > 100 µM

Question: What about the GI50 [22] of the same compound?
Answer: 36.2 µM

Question: What about the TGI [22] of the same compound?
Answer: > 100 µM

Question: What about the GI50 [23] of the same compound?
Answer: 20.9 µM

Question: And the TGI [23]?
Answer: 40.2 µM

Question: What about the GI50 [24] of the same compound?
Answer: 21 µM

Question: What about the TGI [24] of the same compound?
Answer: 47.3 µM

Question: And the GI50 [25]?
Answer: > 100 µM

Question: What about the TGI [25] of the same compound?
Answer: > 100 µM

Question: And the GI50 [26]?
Answer: 90.5 µM

Question: What about the TGI [26] of the same compound?
Answer: > 100 µM

Question: What about the GI50 [27] of the same compound?
Answer: 38.1 µM

Question: And the TGI [27]?
Answer: > 100 µM

Question: What about the GI50 [28] of the same compound?
Answer: 58.9 µM

Question: What about the TGI [28] of the same compound?
Answer: > 100 µM

Question: And the GI50 [29]?
Answer: 24 µM

Question: What about the TGI [29] of the same compound?
Answer: 77.8 µM

Question: And the GI50 [30]?
Answer: > 100 µM

Question: And the TGI [30]?
Answer: > 100 µM

Question: And the GI50 [31]?
Answer: 71.2 µM

Question: What about the TGI [31] of the same compound?
Answer: > 100 µM

Question: What about the GI50 [32] of the same compound?
Answer: 86.4 µM

Question: What about the TGI [32] of the same compound?
Answer: > 100 µM

Question: And the GI50 [33]?
Answer: 77 µM

Question: What about the TGI [33] of the same compound?
Answer: > 100 µM

Question: What about the GI50 [34] of the same compound?
Answer: 94.1 µM

Question: And the TGI [34]?
Answer: > 100 µM

Question: And the GI50 [35]?
Answer: > 100 µM

Question: And the TGI [35]?
Answer: > 100 µM

Question: And the GI50 [36]?
Answer: 25 µM

Question: What about the TGI [36] of the same compound?
Answer: > 100 µM

Question: What about the GI50 [37] of the same compound?
Answer: > 100 µM

Question: What about the TGI [37] of the same compound?
Answer: > 100 µM

Question: What about the GI50 [38] of the same compound?
Answer: 49.4 µM

Question: And the TGI [38]?
Answer: > 100 µM

Question: And the GI50 [39]?
Answer: 64.7 µM

Question: What about the TGI [39] of the same compound?
Answer: > 100 µM

Question: And the GI50 [40]?
Answer: 41.5 µM

Question: And the TGI [40]?
Answer: > 100 µM

Question: And the GI50 [41]?
Answer: 32.1 µM

Question: And the TGI [41]?
Answer: > 100 µM

Question: What about the GI50 [42] of the same compound?
Answer: 76.2 µM

Question: What about the TGI [42] of the same compound?
Answer: > 100 µM

Question: And the GI50 [43]?
Answer: > 100 µM

Question: And the TGI [43]?
Answer: > 100 µM

Question: What about the GI50 [44] of the same compound?
Answer: 23.4 µM

Question: What about the TGI [44] of the same compound?
Answer: 64.1 µM

Question: And the GI50 [45]?
Answer: 32.2 µM

Question: And the TGI [45]?
Answer: > 100 µM

Question: What about the GI50 [46] of the same compound?
Answer: 41.4 µM

Question: And the TGI [46]?
Answer: > 100 µM

Question: And the GI50 [47]?
Answer: > 100 µM

Question: What about the TGI [47] of the same compound?
Answer: > 100 µM

Question: And the GI50 [48]?
Answer: > 100 µM

Question: What about the TGI [48] of the same compound?
Answer: > 100 µM

Question: And the GI50 [49]?
Answer: > 100 µM

Question: What about the TGI [49] of the same compound?
Answer: > 100 µM

Question: What about the GI50 [50] of the same compound?
Answer: > 100 µM

Question: What about the TGI [50] of the same compound?
Answer: > 100 µM

Question: And the GI50 [51]?
Answer: 6.76 µM

Question: What about the TGI [51] of the same compound?
Answer: 18.6 µM

Question: What about the GI50 [52] of the same compound?
Answer: > 100 µM

Question: And the TGI [52]?
Answer: > 100 µM

Question: What about the GI50 [53] of the same compound?
Answer: > 100 µM

Question: And the TGI [53]?
Answer: > 100 µM

Question: What about the GI50 [54] of the same compound?
Answer: > 100 µM

Question: What about the TGI [54] of the same compound?
Answer: > 100 µM

Question: What about the GI50 [55] of the same compound?
Answer: 44.4 µM

Question: And the TGI [55]?
Answer: > 100 µM

Question: What about the GI50 [56] of the same compound?
Answer: 17.5 µM

Question: And the TGI [56]?
Answer: 33.1 µM

Question: What about the GI50 [57] of the same compound?
Answer: 19.4 µM

Question: What about the TGI [57] of the same compound?
Answer: 38.2 µM

Question: And the GI50 [58]?
Answer: 32.5 µM

Question: And the TGI [58]?
Answer: > 100 µM
